Laboratory results published in a melting point compilation (Tetko et al.; mined from patent text by program, amines drawn as free bases though some values may be those of a salt).

| Structure (SMILES) | melting point [°C] |
| --- | --- |
| CC(Cc1ccc(C(=O)c2ccc(Cl)cc2)cc1)S(=O)(=O)C(F)(F)F (stereo unspecified) | 107 to 109 |
| CC(O)(c1ccc(C#N)cc1)c1cncs1 (stereo unspecified) | 162 to 164 |
| CCOC(=O)C1=Cc2cc(C)c(O)cc2OC1C(F)(F)F (stereo unspecified) | 151 to 153 |
| O=c1ccoc2cc(OCCCCl)ccc12 | 72 to 73 |
| CN1CC2C3C=CC(C3)C2(c2cccc(O)c2)C1 (stereo unspecified) | 129 to 136 |
| O=C1CC2CC(C1)CN(Cc1ccccc1)C2 | 89 |
| C[Si](C)(C)C#Cc1cnn2c(C(F)(F)F)cc(-c3ccc(C(F)(F)F)cc3)nc12 | 136 |
| S=[PH](c1ccccc1)c1ccccc1 | 134 to 135 |
| CCNC(=O)c1c([Si](C)(C)C)ccc(C#C[Si](C)(C)C)c1Cl | 131 to 132 |
| N#Cc1ccc(-c2ccc(OC(F)(F)F)c(CNC3CCN(C(=O)C(N)=O)CC3c3ccccc3)c2)c(F)c1 (stereo unspecified) | 142 to 144 |
| Cn1c(C(F)(F)F)cc(=O)n(-c2ccc(Cl)c(C(=O)O)c2)c1=O | 235 to 236 |
| C=CCN(C)c1nc(-c2ccc(OC)cc2)nc2sc(C#N)c(C)c12 | 126 to 128 |
| CCOC(=O)c1cccc(C#CC2(O)CN3CCC2CC3)c1 (stereo unspecified) | 155 to 156 |
| CC(CS)C(=O)N1C(=O)CC[C@H]1C(=O)O (stereo partly specified) | 101 to 108 |
| Cc1ccc(S(=O)(=O)N2[C@@H](c3nn[nH]n3)CC[C@H]2c2ccc(F)cc2)cc1 (racemic) | 150 |
| Cc1scc2c1N(C(=O)NCCN1CCC(CCCN(C)C)CC1)c1ccccc1NC2=O | > 300 |
| C=CCOc1nc(Cl)nc2nc[nH]c12 | 208 to 209 |
| ON=c1cc(-c2cnccn2)ss1 | 262 |
| Cc1nc2c([N+](=O)[O-])cccn2c1C=O | 188 to 189 |
| O=C1CCC(N2Cc3c(OCc4cc(Cl)ccc4Cl)cccc3C2=O)C(=O)N1 (stereo unspecified) | 256 to 258 |
| CC(=O)Nn1c2c(c3ccccc31)Cc1ccccc1-2 | > 240 |
| Nc1ccc(C(=O)N2CCCCc3sccc32)cc1 | 168 to 172 |
| CCOC(=O)C1=Cc2cccc(SC)c2OCC1 | 54 to 55 |
| CCOC(=O)N1C[C@@H]2CC[C@H]1C(=O)C2 | 68.5 to 69.5 |

| Structure (SMILES) | melting point [°C] |
| --- | --- |
| O=C(c1ccccc1)n1c(=O)n(C2CCN(CCCN3c4cccc5cccc(c45)S3(=O)=O)CC2)c2ccccc21 | 133 |
| Cc1oc(C(=O)NCc2ccc3c(c2)OCO3)c(C)c1-c1nc2ccc(C(=O)c3ccccc3)cc2[nH]1 | 122 to 125 |
| NNC(=O)Cc1cccc(OCCN2CCC(Cc3ccccc3)CC2)c1 | 89 to 91 |
| COC(=O)[C@@H]1CCCCN1S(=O)(=O)c1ccc(Cl)c(COc2cccc3c(-n4ccnc4)cc(C)nc23)c1Cl | 81 |
| CN(C)S(=O)(=O)c1cc(C(=O)Cl)ccc1Cl | 103 to 105 |
| CNc1c([N+](=O)[O-])ccc(Cl)c1Cl | 82 |
| Cc1noc(NS(=O)(=O)c2cc3ccccc3s2)c1C | 157 to 160 |
| O=C(Oc1cc(=O)[nH]cc1Cl)c1ccccc1 | 196 to 197 |
| Cc1ccc(-c2nc(Cc3cc4cc(C=O)ccc4o3)c(C)o2)cc1 | 126 to 130 |
| Cc1cc([Si](C)(C)C)c(C)cc1[Si](C)(C)C | 56 to 57.5 |
| CS(=O)(=O)c1ccc(C(=O)Nc2ccc(-n3nc(C(F)(F)F)cc3C(F)(F)F)cc2)cc1 | 216 to 218 |
| CN1CN(c2ccccc2)C2(CCN(CCCC(=O)c3ccc(F)cc3I)CC2)C1=O | 115 to 118 |
| CCCSc1nc(Sc2ccc(OC)cc2)c(C(=O)O)n1Cc1cc2c(cc1Cl)OCO2 | 164 |
| CN1C(=O)C(C)(C)C(=O)N(C)c2cc(N)ccc21 | 221 to 222 |
| CC(C)(C)OC(=O)NOCC(=O)NNC(=O)c1cc(S(=O)(=O)O)cc(O)c1O | 148 to 150 |
| O=Cc1cc(OCc2ccccc2)c(OCc2ccccc2)cn1 | 104 |
| CCCCS(=O)(=O)Oc1c(C(=O)OC(C)C)sc(C(=O)OC(C)C)c1C | 59 to 61 |
| COC(=O)CNC(=O)c1ccc(C(=O)NS(=O)(=O)c2ccc(OC)cc2)cn1 | 150 to 152 |
| CCc1nn(CCO)c(CC)c1Cc1cc(C#N)cc(C#N)c1 | 115 to 117 |
| CN(C)NC(=O)c1sc(Nc2ccccc2)c2c1CCc1cnoc1-2 | 179 to 180 |
| CC(C)n1c(C=O)c(-c2ccc(F)cc2)c(-c2ccc(F)cc2)c1C(=O)O | 228 to 230 |
| C[Si](C)(C)C#Cc1cc(Cl)cnc1N | 108 |
| COC(=O)c1cc(NC(C)=O)c([N+](=O)[O-])cc1C(=O)OC | 119 to 120 |
| COC1=CC(C=O)(NC(c2ccccc2)(c2ccccc2)c2ccccc2)NC=C1 (stereo unspecified) | 172 |

More lines, now with the values ahead:

| melting point [°C] | Structure (SMILES) |
| --- | --- |
| 113 to 114 | Cc1nc(COc2ccc(Cn3cc(CCC(=O)O)c(-c4ccccc4)c3)cc2)cs1 |
| 194 to 196 | CC(C)(C)NCc1ccc(COc2cccc3c2CN(C2CCC(=O)NC2=O)C3=O)cc1 (stereo unspecified) |
| 114 to 116 | Cc1ccc2nc(-c3ccccc3)c(-c3ccccc3)nc2c1 |
| 190 to 193 | CC(=O)c1c(O)cccc1OCCCCCOc1ccc2cc(C(=O)O)ccc2c1 |
| 87 to 88 | c1ccc(COc2ccc(-c3nc(COc4cccc(CCCCn5ccnc5)c4)co3)cc2)cc1 |
| 42 to 46 | CCOC(=O)C(Oc1ccc(Oc2ccc(C#N)cc2)cc1)C(=O)OCC |
| 212 | Cc1ccccc1-c1nc2c(o1)C(=O)c1ccccc1C2=O |
| 201 | O=C(Nc1ccccc1Cl)Oc1ccc2c(c1)CCCN2 |
| 184 to 185 | O=c1c(CCCCc2cccnc2)cc2cccnc2n1-c1cccc([N+](=O)[O-])c1 |
| 112 to 116 | Oc1ccc(-c2c3ccccc3cc3sc4ccccc4c23)cc1 |
| 172 | CCOC(=O)c1cc(-c2ccc(-c3ccco3)cc2)n(-c2ccc(S(C)(=O)=O)c(F)c2)n1 |
| 177 to 179 | CCC1c2cccn2-c2cc(F)c(F)cc2N1S(=O)(=O)c1ccc(O)cc1 (stereo unspecified) |
| 113 to 115 | O=C1c2cc(OCc3ccc4ccccc4n3)ccc2OCC1OCc1ccccc1 (stereo unspecified) |
| 176 to 178 | CCc1ccc2c(c1)C1(CCN(C(=O)Nc3cnc(-c4ccccc4)cn3)CC1)OC2=O |
| 122 to 124 | COc1ccc(N2C(=O)c3cccc(OC)c3NC2c2ccc(OCCCl)cc2)cc1 (stereo unspecified) |
| 185 to 186 | Cc1ncc(C#N)c(Nc2cccc3[nH]ccc23)c1-c1ccc(OCCCl)cc1 |
| 241 to 243 | COc1cc2cc(C#N)c(N)cc2cc1OCc1ccccc1 |
| 142 | O=C(NO)[C@H](CNS(=O)(=O)c1ccc(OCc2ccccc2)cc1)N1CCOCC1 |
| 88 to 89 | CCCCC1(CCCC)CCc2ccc(OCc3ccc4ccccc4n3)cc2C1=O |
| 162 to 164 | Cc1ccccc1-c1cc(-c2ccccc2C(=O)O)on1 |
| 194 to 195 | Cc1oc(-c2ccccc2)nc1COc1ccc(COc2ccc(O)cc2CC(=O)O)cc1 |
| 154 to 155 | O=C1c2ccccc2CN1c1cccc(CCN2CCN(c3nsc4ccccc34)CC2)c1 |
| 126 to 128 | O=C(COc1ccc(CCNCC(O)COc2ccccc2)cc1)NO (stereo unspecified) |
